Test results: paper PMC7180948, “New Insights into 4-Anilinoquinazolines as Inhibitors of Cardiac Troponin I–Interacting Kinase (TNNi3K)” (Molecules, 2020)

Tests used:
Experiment in all cases: biochemical
Parameters in all cases: KINOMEscan competition binding panel (Eurofins DiscoverX), single concentration, % inhibition
Conditions in all cases: read-out: 7 at 1 µM % inhibition
AKT2 = AKT2 (Homo sapiens, UniProt P31751)
Method in brief: (§1)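 KINOMEscan binding panel of >400 kinases, run by Eurofins DiscoverX, with compounds tested at a single concentration of 1 µM.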

TAOK3 = TAOK3 (Homo sapiens, UniProt Q9H2K8)
Method in brief: as §1

EPHA3 = EPHA3 (Homo sapiens, UniProt P29320)
Sequence of EPHA3 (P29320 whole entry): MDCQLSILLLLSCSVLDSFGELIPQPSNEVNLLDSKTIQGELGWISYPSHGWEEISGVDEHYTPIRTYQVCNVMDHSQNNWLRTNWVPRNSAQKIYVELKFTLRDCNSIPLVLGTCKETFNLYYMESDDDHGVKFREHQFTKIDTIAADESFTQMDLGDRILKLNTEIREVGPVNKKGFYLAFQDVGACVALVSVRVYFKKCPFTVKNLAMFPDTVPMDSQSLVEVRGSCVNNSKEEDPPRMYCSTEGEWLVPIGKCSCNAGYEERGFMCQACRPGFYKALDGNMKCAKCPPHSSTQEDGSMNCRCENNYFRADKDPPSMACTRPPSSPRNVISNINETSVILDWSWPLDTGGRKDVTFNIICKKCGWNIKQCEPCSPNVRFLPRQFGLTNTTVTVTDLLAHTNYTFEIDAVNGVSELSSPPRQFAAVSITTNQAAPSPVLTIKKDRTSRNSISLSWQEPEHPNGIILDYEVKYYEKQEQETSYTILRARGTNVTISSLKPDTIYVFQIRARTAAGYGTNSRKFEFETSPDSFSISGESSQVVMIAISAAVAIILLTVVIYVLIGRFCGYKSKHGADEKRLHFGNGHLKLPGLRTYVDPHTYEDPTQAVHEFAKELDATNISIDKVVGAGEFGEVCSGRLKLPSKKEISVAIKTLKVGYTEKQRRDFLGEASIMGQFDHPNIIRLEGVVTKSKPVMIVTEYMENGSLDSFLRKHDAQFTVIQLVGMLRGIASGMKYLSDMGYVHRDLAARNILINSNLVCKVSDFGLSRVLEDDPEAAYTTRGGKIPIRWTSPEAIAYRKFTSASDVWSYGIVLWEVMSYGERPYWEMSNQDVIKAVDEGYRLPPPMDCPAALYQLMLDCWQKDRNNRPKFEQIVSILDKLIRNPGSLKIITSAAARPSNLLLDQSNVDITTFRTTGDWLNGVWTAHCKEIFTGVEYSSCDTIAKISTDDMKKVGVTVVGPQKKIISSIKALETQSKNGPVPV
Method in brief: as §1

FGFR2 = FGFR2 (Homo sapiens, UniProt P21802)
Sequence of FGFR2 (P21802 whole entry): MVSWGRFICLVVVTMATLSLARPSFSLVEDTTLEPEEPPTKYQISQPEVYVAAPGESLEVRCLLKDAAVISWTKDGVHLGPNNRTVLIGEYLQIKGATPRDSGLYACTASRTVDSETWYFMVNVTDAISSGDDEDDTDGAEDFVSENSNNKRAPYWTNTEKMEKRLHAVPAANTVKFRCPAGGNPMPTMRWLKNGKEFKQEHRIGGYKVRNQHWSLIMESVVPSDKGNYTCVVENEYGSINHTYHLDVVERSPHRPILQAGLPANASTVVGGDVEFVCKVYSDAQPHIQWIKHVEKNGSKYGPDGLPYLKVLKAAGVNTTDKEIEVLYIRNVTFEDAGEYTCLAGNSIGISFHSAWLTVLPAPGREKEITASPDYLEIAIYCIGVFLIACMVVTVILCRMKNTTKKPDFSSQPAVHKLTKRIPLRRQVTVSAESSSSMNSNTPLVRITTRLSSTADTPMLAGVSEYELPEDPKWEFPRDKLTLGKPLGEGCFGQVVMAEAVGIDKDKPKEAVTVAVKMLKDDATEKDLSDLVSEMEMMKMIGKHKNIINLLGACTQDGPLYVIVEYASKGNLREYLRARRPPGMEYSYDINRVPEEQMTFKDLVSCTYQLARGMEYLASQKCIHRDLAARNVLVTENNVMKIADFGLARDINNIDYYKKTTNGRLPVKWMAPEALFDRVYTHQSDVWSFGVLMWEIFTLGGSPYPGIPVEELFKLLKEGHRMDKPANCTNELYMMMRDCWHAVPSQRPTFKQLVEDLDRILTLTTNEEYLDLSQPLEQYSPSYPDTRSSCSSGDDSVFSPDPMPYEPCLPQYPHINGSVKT
Method in brief: as §1

CLK1 = CLK1 (Homo sapiens, UniProt P49759)
Method in brief: as §1

[1] = target: T1, RSK1(Kin.Dom.1-N-terminal) (Homo sapiens, UniProt Q15418)
T1 construct: gene RPS6KA1; Kin.Dom.1-N-terminal
T1 sequence (Q15418 whole entry): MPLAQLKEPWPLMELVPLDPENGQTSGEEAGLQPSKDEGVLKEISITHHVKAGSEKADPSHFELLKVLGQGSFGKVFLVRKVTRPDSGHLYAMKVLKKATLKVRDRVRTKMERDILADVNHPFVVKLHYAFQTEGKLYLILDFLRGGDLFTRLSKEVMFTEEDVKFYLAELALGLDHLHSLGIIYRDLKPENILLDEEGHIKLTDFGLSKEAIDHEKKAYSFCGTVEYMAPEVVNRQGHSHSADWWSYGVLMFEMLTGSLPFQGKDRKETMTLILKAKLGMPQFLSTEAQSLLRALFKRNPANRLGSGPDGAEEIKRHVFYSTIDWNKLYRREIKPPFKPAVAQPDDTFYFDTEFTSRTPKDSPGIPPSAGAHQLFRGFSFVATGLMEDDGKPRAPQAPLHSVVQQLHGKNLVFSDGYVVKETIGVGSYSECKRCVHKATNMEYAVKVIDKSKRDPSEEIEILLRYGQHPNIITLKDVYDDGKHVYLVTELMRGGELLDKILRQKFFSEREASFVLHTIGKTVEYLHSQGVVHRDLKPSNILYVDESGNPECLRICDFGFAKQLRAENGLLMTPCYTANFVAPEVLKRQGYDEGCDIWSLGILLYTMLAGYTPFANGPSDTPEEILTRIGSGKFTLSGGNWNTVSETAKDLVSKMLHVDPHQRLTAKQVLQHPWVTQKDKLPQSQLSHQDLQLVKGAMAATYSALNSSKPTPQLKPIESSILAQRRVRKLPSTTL
Method in brief: as §1

[2] = target: T2, RPS6KA4(Kin.Dom.1-N-terminal) (Homo sapiens, UniProt O75676)
T2 construct: Kin.Dom.1-N-terminal
Method in brief: as §1

FLT3(ITD,D835V) = FLT3(ITD,D835V) (Homo sapiens, UniProt P36888, D835V/ITD)
Method in brief: as §1

MLK2 = target: T3, MLK2 (Homo sapiens, UniProt Q02779)
T3 construct: gene MAP3K10
Method in brief: as §1

NDR2 = target: T4, NDR2 (Homo sapiens, UniProt Q9Y2H1)
T4 construct: gene STK38L
Method in brief: as §1

RET(M918T) = RET(M918T) (Homo sapiens, UniProt P07949, M918T)
Method in brief: as §1

PIK3CA = PIK3CA (Homo sapiens, UniProt P42336)
Sequence of PIK3CA (P42336 whole entry): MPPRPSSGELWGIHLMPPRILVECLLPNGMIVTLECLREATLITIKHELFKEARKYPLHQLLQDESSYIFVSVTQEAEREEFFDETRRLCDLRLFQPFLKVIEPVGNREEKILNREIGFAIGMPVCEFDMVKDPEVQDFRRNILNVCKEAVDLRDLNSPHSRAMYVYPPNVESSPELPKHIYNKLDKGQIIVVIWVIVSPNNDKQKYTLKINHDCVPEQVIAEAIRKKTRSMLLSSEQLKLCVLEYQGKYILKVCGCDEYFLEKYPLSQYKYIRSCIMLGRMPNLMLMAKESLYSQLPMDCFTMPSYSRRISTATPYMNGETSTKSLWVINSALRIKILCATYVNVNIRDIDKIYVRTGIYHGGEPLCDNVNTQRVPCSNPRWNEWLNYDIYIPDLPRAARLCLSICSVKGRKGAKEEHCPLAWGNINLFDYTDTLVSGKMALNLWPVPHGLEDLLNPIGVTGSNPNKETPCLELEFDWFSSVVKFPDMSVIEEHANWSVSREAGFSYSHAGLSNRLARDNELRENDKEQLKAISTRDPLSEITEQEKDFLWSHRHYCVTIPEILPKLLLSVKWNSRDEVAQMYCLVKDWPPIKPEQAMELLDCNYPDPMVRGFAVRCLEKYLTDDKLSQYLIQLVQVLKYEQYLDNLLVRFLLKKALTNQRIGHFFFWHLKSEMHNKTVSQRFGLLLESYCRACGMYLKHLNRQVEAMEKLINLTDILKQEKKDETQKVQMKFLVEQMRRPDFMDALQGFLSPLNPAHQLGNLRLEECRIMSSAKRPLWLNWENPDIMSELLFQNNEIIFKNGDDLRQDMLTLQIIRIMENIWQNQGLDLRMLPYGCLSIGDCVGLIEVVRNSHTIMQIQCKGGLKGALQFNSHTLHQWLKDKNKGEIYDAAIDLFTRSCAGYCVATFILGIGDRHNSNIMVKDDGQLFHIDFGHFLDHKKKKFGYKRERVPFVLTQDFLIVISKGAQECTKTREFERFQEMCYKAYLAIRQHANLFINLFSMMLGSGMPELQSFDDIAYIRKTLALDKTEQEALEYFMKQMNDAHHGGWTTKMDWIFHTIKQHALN
Method in brief: as §1

CDC2L5 = target: T5, CDC2L5 (Homo sapiens, UniProt Q14004)
T5 construct: gene CDK13
T5 sequence (Q14004 whole entry): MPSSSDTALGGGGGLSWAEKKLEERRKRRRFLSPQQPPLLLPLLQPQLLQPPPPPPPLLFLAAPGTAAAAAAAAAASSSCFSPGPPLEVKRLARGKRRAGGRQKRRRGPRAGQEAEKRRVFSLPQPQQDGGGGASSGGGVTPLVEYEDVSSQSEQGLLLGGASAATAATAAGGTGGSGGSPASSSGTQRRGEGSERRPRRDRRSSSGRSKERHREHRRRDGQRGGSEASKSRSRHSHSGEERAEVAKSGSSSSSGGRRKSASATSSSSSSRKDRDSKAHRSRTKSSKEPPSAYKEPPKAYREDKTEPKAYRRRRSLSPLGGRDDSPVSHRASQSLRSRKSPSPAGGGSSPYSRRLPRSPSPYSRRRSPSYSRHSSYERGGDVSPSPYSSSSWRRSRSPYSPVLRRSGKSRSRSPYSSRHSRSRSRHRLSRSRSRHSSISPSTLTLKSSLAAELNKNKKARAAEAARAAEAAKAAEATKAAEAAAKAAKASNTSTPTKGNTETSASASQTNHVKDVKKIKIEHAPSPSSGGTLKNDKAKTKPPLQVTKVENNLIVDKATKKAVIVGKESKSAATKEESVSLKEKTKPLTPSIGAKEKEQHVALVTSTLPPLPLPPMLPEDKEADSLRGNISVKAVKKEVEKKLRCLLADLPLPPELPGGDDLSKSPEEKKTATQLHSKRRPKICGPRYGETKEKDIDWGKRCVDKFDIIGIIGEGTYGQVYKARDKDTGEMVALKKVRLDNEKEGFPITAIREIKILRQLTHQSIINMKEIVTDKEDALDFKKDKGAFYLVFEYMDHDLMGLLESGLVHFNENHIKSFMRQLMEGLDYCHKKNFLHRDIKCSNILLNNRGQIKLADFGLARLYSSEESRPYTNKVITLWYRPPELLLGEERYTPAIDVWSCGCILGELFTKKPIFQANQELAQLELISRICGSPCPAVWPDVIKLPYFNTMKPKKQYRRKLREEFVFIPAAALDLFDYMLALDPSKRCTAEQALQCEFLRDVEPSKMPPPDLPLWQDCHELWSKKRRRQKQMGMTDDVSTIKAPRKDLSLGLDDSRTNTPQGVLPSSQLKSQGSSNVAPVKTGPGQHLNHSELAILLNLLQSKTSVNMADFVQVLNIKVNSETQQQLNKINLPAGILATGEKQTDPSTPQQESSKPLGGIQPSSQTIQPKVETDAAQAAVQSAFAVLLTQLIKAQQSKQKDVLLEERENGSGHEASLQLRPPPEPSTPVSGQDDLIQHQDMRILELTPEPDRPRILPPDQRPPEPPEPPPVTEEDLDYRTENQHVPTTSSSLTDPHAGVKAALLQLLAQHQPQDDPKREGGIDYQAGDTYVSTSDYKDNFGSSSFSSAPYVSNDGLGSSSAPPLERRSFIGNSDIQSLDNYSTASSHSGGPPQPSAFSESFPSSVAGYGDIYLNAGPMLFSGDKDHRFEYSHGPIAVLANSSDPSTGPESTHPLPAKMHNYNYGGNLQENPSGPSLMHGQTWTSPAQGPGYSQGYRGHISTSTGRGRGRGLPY
Method in brief: as §1

PIK3C2B = PIK3C2B (Homo sapiens, UniProt O00750)
Method in brief: as §1

TXK = TXK (Homo sapiens, UniProt P42681)
Method in brief: as §1

TAK1 = target: T6, TAK1 (Homo sapiens, UniProt O43318)
T6 construct: gene MAP3K7
Method in brief: as §1

[3] = target: T7, RSK3(Kin.Dom.1-N-terminal) (Homo sapiens, UniProt Q15349)
T7 construct: gene RPS6KA2; Kin.Dom.1-N-terminal
Method in brief: as §1

PIK3CA(H1047Y) = PIK3CA(H1047Y) (Homo sapiens, UniProt P42336, H1047Y)
Method in brief: as §1

PRKR = target: T8, PRKR (Homo sapiens, UniProt P19525)
T8 construct: gene EIF2AK2
Method in brief: as §1

VPS34 = target: T9, VPS34 (Homo sapiens, UniProt Q8NEB9)
T9 construct: gene PIK3C3
Method in brief: as §1

[4] = target: T10, RSK2(Kin.Dom.2-C-terminal) (Homo sapiens, UniProt P51812)
T10 construct: gene RPS6KA3; Kin.Dom.2-C-terminal
Method in brief: as §1

PIK3CA(E545K) = PIK3CA(E545K) (Homo sapiens, UniProt P42336, E545K)
Method in brief: as §1

MYO3B = MYO3B (Homo sapiens, UniProt Q8WXR4)
Method in brief: as §1

Question: With `CNS(=O)(=O)c1ccc(N(C)C)c(Nc2ncnc3cc(OC)c(OC)cc23)c1` [compound 7, 3-((6,7-dimethoxyquinazolin-4-yl)amino)-4-(dimethylamino)-N-methylbenzenesulfonamide] as the compound, how does the inhibition at 1 µM (AKT2) read?
Answer: Its inhibition at 1 µM is 0%.

Question: What about the inhibition at 1 µM (TAOK3) of the same compound?
Answer: Its inhibition at 1 µM is 29%.

Question: What about the inhibition at 1 µM (EPHA3) of the same compound?
Answer: The inhibition at 1 µM was 5%.

Question: What about the inhibition at 1 µM (FGFR2) of the same compound?
Answer: The inhibition at 1 µM was 0%.

Question: And the inhibition at 1 µM (CLK1)?
Answer: The inhibition at 1 µM was 8%.

Question: What about the inhibition at 1 µM [1] of the same compound?
Answer: The inhibition at 1 µM was 2%.

Question: And the inhibition at 1 µM [2]?
Answer: The inhibition at 1 µM was 4%.

Question: What about the inhibition at 1 µM (FLT3(ITD,D835V)) of the same compound?
Answer: Its inhibition at 1 µM is 34%.

Question: And the inhibition at 1 µM (MLK2)?
Answer: The inhibition at 1 µM was 15%.

Question: What about the inhibition at 1 µM (NDR2) of the same compound?
Answer: The inhibition at 1 µM was 9%.

Question: And the inhibition at 1 µM (RET(M918T))?
Answer: Its inhibition at 1 µM is 0%.

Question: What about the inhibition at 1 µM (PIK3CA) of the same compound?
Answer: Its inhibition at 1 µM is 51%.

Question: And the inhibition at 1 µM (CDC2L5)?
Answer: The inhibition at 1 µM was 0%.

Question: And the inhibition at 1 µM (PIK3C2B)?
Answer: The inhibition at 1 µM was 77%.

Question: And the inhibition at 1 µM (TXK)?
Answer: Its inhibition at 1 µM is 0%.

Question: And the inhibition at 1 µM (TAK1)?
Answer: Its inhibition at 1 µM is 51%.

Question: What about the inhibition at 1 µM [3] of the same compound?
Answer: The inhibition at 1 µM was 0%.

Question: What about the inhibition at 1 µM (PIK3CA(H1047Y)) of the same compound?
Answer: The inhibition at 1 µM was 17%.

Question: What about the inhibition at 1 µM (PRKR) of the same compound?
Answer: Its inhibition at 1 µM is 0%.

Question: And the inhibition at 1 µM (VPS34)?
Answer: Its inhibition at 1 µM is 18%.

Question: And the inhibition at 1 µM [4]?
Answer: Its inhibition at 1 µM is 33%.

Question: And the inhibition at 1 µM (PIK3CA(E545K))?
Answer: The inhibition at 1 µM was 5%.

Question: And the inhibition at 1 µM (MYO3B)?
Answer: The inhibition at 1 µM was 0%.
